One series deals with non-anaesthetized dogs. Kind of series: Diuretic activity in non-anaesthetized dogs after hydration. Format: in vivo. On the procedure:
After hydration with 500 ml physiological water and calculation of the diuresis for 2 hours, CE 3624, CE 3649 and CE 3598 were administered per os at doses of from 10 to 100 mg/kg.
For CE 3624 at 20 mg/kg, the diuresis was quintupled for 3 hours; the same result was obtained at 10 mg/kg. For CE 3649, at the same doses, the diuresis was only doubled. The doses of CE 3598 administered per os were 25,50 and 100 mg/kg. The increase in diuresis was effective during the first hour, and still notable 3 hours after administration of the product.

In a further series the test system is mice. Kind of series: Diuretic activity in mice. The format is in vivo. On the procedure: The three compounds CE 3598, CE 3624, CE 3649 can be shown to be diuretic at doses of from 1 - 50 mg/kg for the first.
For a further series, the system named is dogs. Kind of series: Tolerance in dogs, 5 days. Format: in vivo. The note with it: 50 to 200 mg/kg via the digestive tract, three dogs.
Series [1] is described as follows: Acute toxicity in mice (mortality after 24 h intravenous, 48 h per os). The note with it: mouse, in vivo; for LD50 at 24 h: intravenous, mortality after 24 hours; for LD50 at 48 h: po, per os, mortality after 48 hours. As to the method:
The three compounds were administered in the usual way to lots of 10 male mice of average weight 20 gm. Mortality was assessed after 24 hours for the intravenous toxicity and after 48 hours for toxicity per os.

Series [2] has as its system dogs anaesthetized with mebubarbital. Kind of series: Diuretic activity in dogs anaesthetized with mebubarbital. The format is in vivo. On the procedure: The doses injected were of the order of 5 - 30 mg/kg. In most cases, diuresis was decupled for more than 2 hours.
The size of the increase may reach 6 to 7 times, even 10 times, the base diuresis.
In the case of intraduodenal injection or administration per os, the active doses are relatively the same as by intravenous administration.

Setting [3] is: per os, 10 to 100 mg/kg, after hydration with 500 ml physiological water.

Data on three compounds can be found in US3969529A, “Phenoxyacetic acid derivatives as diuretic agents” (C.E.R.P.H.A., priority 1969, dated 1976).

The structures appear in SMILES notation.

For orientation: LD50 means the dose expected to kill half of the subjects tested. A lower LD50 goes with a more toxic substance. In the case of `Cc1ccc(C(=O)c2ccc(OCC(=O)O)c(Cl)c2Cl)s1` [CE 3649, 4-[2(5-methylthienyl)keto] 2,3-dichloro phenoxyacetic acid], the increase in diuresis result in the series on non-anaesthetized dogs (setting [3]) is recorded as “strongly increased”. Moreover, in the series with non-anaesthetized dogs (per os, same doses as CE 3624 (20 and 10 mg/kg)), the increase in diuresis result is “only doubled”. In the series with mice, the diuretic activity result was “diuretic” and the “diuretic activity relative to CE 3624” value is given as “a quarter of that of CE 3624”. In the series on dogs, the “symptoms indicating injurious activity” value is on record as “no symptoms which would indicate any injurious activity”. In addition, in series [1], the LD50 at 24 h was 580 mg/kg and the LD50 at 48 h worked out at 2900 mg/kg.
With `O=C(O)COc1ccc(C(=O)c2cccs2)c(Cl)c1Cl` [CE 3624, 4-(2-thienylketo) 2,3-dichloro phenoxyacetic acid], the increase in diuresis result in the series with non-anaesthetized dogs (per os, 10 mg/kg) was “quintupled”; with non-anaesthetized dogs (per os, 20 mg/kg, for 3 hours), “quintupled”; in the series on non-anaesthetized dogs (setting [3]) it was “strongly increased”; in series [2] (injected, of the order of 5 - 30 mg/kg, in most cases, for more than 2 hours), “decupled”; in the series with mice (25 mg/kg), “doubled”; in the series with mice (50 mg/kg) it was “quintupled”. In addition, the “duration of quintupled diuresis” value with non-anaesthetized dogs (per os, 20 mg/kg) was 3 h. Further, in series [2] (injected, of the order of 5 - 30 mg/kg), the diuretic action entry is “extremely substantial and precocious”. The “duration of decupled diuresis” value in series [2] (injected, of the order of 5 - 30 mg/kg, in most cases) is given as “more than 2 hours”. Moreover, the diuretic activity result in the series with mice is on record as “diuretic”. The “symptoms indicating injurious activity” value with dogs is given as “no symptoms which would indicate any injurious activity”. The compound also returned an LD50 at 24 h in series [1] of 225 mg/kg. The same compound registered an LD50 at 48 h in series [1] of 1280 mg/kg.
Regarding `O=C(O)COc1ccc(C(=O)c2ccco2)c(Cl)c1Cl` [CE 3598, 4-(2-furylketo) 2,3-dichloro phenoxyacetic acid], the increase in diuresis result with non-anaesthetized dogs (setting [3]) is “strongly increased”. Moreover, in the series with non-anaesthetized dogs (per os, 25, 50 and 100 mg/kg), the “increase in diuresis 3 hours after administration” value is listed as “still notable” and the “increase in diuresis during the first hour” value is given as “effective”. Moreover, in series [2] (intravenous), the “increase in diuresis 2 hours after injection” value is reported as “still perceptible”. For the same compound, in series [2] (intravenous, first 15 minutes), the “dose provoking substantial diuretic action” value was roughly 10 mg/kg. In series [2] (intravenous, may reach even), the “size of the increase over base diuresis, maximum” value worked out at 10 times. For the same compound, the “diuretic action in the first 15 minutes” value in series [2] (intravenous, of the order of 10 mg/kg) is reported as “substantial diuretic action”. Further, in the series on mice, the diuretic activity result is “diuretic”. Also, in the series with dogs, the “symptoms indicating injurious activity” value is given as “no symptoms which would indicate any injurious activity”. For the same compound, in series [1], the LD50 at 24 h turned out to be 450 mg/kg and the LD50 at 48 h is 1500 mg/kg.
